Results published in BindingDB's records for doi:10.1002/ps.1855 (2010).

Tests used:
[1] = Inhibition of photosynthetic electron transport protein complex in Spinacia oleracea (spinach) leaf thylakoid membranes measured at 30 seconds intervals for 10 min
[2] = target: Cytochrome b6-f complex subunit 4 (Spinacia oleracea, UniProt P00166); test: Inhibition of photosynthetic electron transport protein complex in Spinacia oleracea (spinach) leaf thylakoid membranes measured at 30 seconds intervals for 10 min
Cytochrome b6-f complex subunit 4, sequence (P00166 whole entry, one chain of several): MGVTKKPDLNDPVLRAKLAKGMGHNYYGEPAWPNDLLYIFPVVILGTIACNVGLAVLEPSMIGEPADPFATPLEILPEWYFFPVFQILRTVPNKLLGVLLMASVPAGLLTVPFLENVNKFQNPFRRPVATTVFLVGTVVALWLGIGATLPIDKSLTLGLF

Row | Compound | IC50 [1] [µM] | IC50 [2] [µM]
1 | COc1cc(OC)c(/C=C2\C=C(Cc3ccccc3)C(=O)O2)c(OC)c1 | 12.7 | 
2 | O=C1O/C(=C\c2ccc(O)cc2)C=C1Cc1ccccc1 |  | > 200
3 | O=C1O/C(=C\c2ccc(C(F)(F)F)cc2)C=C1Cc1ccccc1 |  | 8.3
4 | O=C1O/C(=C\c2ccc([N+](=O)[O-])cc2)C=C1Cc1ccccc1 |  | 1.7
5 | CN(C)c1ccc(/C=C2/C=C(Cc3ccccc3)C(=O)O2)c(Cl)c1 | > 200 | 
6 | O=C1O/C(=C\c2ccccc2O)C=C1Cc1ccccc1 |  | > 200
7 | O=C1O/C(=C\c2ccc(Br)cc2)C=C1Cc1ccccc1 |  | > 200
8 | Cc1ccccc1/C=C1/C=C(Cc2ccccc2)C(=O)O1 |  | 23.5
9 | COc1ccc(/C=C2/C=C(Cc3ccccc3)C(=O)O2)cc1 |  | 53.7
10 | CN(C)c1ccc(/C=C2/C=C(Cc3ccccc3)C(=O)O2)cc1 | > 200 | 
11 | O=C1O/C(=C\c2ccc(-c3ccccc3)cc2)C=C1Cc1ccccc1 |  | > 200
12 | O=C1O/C(=C\c2ccccc2Br)C=C1Cc1ccccc1 | 25.8 | 
13 | Cc1ccc(/C=C2/C=C(Cc3ccccc3)C(=O)O2)cc1 |  | > 200
14 | O=C1O/C(=C\c2ccc3c(c2)OCO3)C=C1Cc1ccccc1 |  | > 200
15 | O=C1O/C(=C\c2c(F)c(F)c(F)c(F)c2F)C=C1Cc1ccccc1 | 75.2 | 
16 | CCc1ccc(/C=C2/C=C(Cc3ccccc3)C(=O)O2)cc1 | 9.1 | 
17 | O=C1O/C(=C\c2ccccc2Cl)C=C1Cc1ccccc1 | 19.1 | 
18 | O=C1O/C(=C\c2ccccc2F)C=C1Cc1ccccc1 |  | 10.1
19 | O=C1O/C(=C\c2ccc(F)cc2)C=C1Cc1ccccc1 | 21.9 | 
20 | COc1ccc(OC)c(/C=C2/C=C(Cc3ccccc3)C(=O)O2)c1 |  | 19.4
21 | O=C1O/C(=C\c2ccc(Cl)cc2)C=C1Cc1ccccc1 |  | > 200
22 | COc1ccc(/C=C2/C=C(Cc3ccccc3)C(=O)O2)cc1O |  | > 200
23 | O=C1O/C(=C\c2ccccc2C(F)(F)F)C=C1Cc1ccccc1 |  | 11.8

Now from value to molecule:

Row | IC50 [1] [µM] | IC50 [2] [µM] | Compound
24 | 20.5 |  | O=C1O/C(=C\c2cccc(F)c2)C=C1Cc1ccccc1
25 | 170 |  | O=C1O/C(=C\c2cccc(Br)c2)C=C1Cc1ccccc1
26 |  | > 200 | N#Cc1ccc(/C=C2/C=C(Cc3ccccc3)C(=O)O2)cc1
27 | 44.7 |  | O=C1O/C(=C\c2cccc(Cl)c2)C=C1Cc1ccccc1
28 |  | > 200 | O=C1O/C(=C\c2cccc(O)c2)C=C1Cc1ccccc1
29 | 13.3 |  | CN(C)c1cccc(/C=C2/C=C(Cc3ccccc3)C(=O)O2)c1
30 |  | 10 | O=C1O/C(=C\c2cccc(C(F)(F)F)c2)C=C1Cc1ccccc1
31 | 73.8 |  | Cc1cccc(/C=C2/C=C(Cc3ccccc3)C(=O)O2)c1
32 |  | 19.7 | O=C1O/C(=C\c2ccccc2)C=C1Cc1ccccc1
33 |  | > 200 | N#Cc1cccc(/C=C2/C=C(Cc3ccccc3)C(=O)O2)c1
34 | 23.1 |  | O=C1O/C(=C\c2cccc([N+](=O)[O-])c2)C=C1Cc1ccccc1
